These results are taken from patent publication US20100063085A1, “METHOD OF TREATING LEARNING IMPAIRMENT IN DOWN'S SYNDROME SUBJECTS” (University Court of The University of Dundee, priority 2008, published 2010).

One assay relates to PHK. In words: PHK 33P kinase assay. It is filed as biochemical. As for the experimental part:
(§1) All assays (25.5 μl) were carried out at room temperature (21° C.) and were linear with respect to time and enzyme concentrations under the conditions used. Assays were performed for 30 minutes except assays for LCK and PKB which were performed for 15 minutes using Multidrop Micro reagent dispensers (Thermo Electron Corporation, Waltham, Mass. 02454, USA) in a 96-well format. The concentration of […] [γ-^33P] ATP (800 cpm/pmol) in the assays was one of three concentrations (5, 20 or 50 μM) in order to be at or below Km for ATP for the enzyme. Assays were initiated with MgATP and stopped by addition of 5 μl of 0.5M orthophosphoric acid. Assays were then harvested onto P81 filterplates using a unifilter harvester (PerkinElmer, Boston, Mass. 02118, USA), with a wash buffer of 50 mM orthophosphoric acid. Filterplates were then air dried overnight. 10 μl of Microscint O was added per well prior to counting for radioactivity.
MKK1, JNK/SAPK1c, SAPK2a/p38, SAPK2b/p38β2, SAPK3/p38γ, SAPK4/p38δ, MAPK2/ERK2, MAPKAP-K1β, MAPKAP-K2, MSK1, PRAK, PKA, PKCα, PDK1, SGK, p70S6K, GSK3β, ROCK-II, PRK2, AMPK, CHK1, CHK2, CK2, PHK, LCK, were assayed according to Davies et al., (Davies, S. P., Reddy, H., Caivano, M. and Cohen, P. Biochem. J. 351, 95-105, 2000.
CSK and CDK2/cyclinA, were assayed according to Bain et al. (Bain J, McLauchlan H, Elliott M, Cohen P. Biochem J. 371, 199-204, 2003., except that ATP concentrations were either 5, 20 or 50 micromolar so that they were at or below the Km for ATP. The ATP concentrations used were as follows, 5 μM for assays of MKK1, SAPK3, SAPK4, GSK3β, PRK2 CK2 20 μm for assays of JNK, SAPK2β, MAPKAP-K2, MSK1, PRAK, PKA, […], PDK1, SGK, p70S6K, ROCK-II, CHK1, CHK2, CSK, CDK2, and 50 μM for assays of SAPK2a, MAPK2/ERK2, AMPK, LCK, PHK and MAPKAP-K1β.

The target of another assay is PKBb (Homo sapiens, UniProt P31751, S474D). In words: PKBb 33P kinase assay. Type of assay: biochemical. The note with it: read-out: PKBb activity as percentage of control without inhibitor. As to the method: as §1
(§2) The following kinases were assayed against the substrates indicated. Aurora B was assayed against the substrate peptide […] (300 μM), ERK8 and MST-2 were both assayed against MBP (0.33 mg/ml). IKKβ was assayed against the substrate peptide […] (300 μM), JNK3 was assayed against 3 μM ATF2[19-96]. MAPKAP-K3 and PKD1 were both assayed against […] (30 μM), MARK3 was assayed against CHKtide ([…]) substrate peptide (300 μM). MNK1 and MNK2 were both assayed against eIF4E protein (0.5 mg/ml). NEK7 was assayed against […] (300 μM), PIM2 was assayed against […] (300 μM), ΔPH PKBβ-S474D was assayed against Crosstide (30 μM), PLK1 was assayed against […] (300 μM). PRK2 was assayed against Long S6 peptide, […] (30 μM), RSK2 was assayed against […] (30 μM), SRC was assayed against cdc2 peptide, […], (300 μM) and SRPK1 was assayed against peptide […] (300 μM). All enzymes were diluted in 50 mM Tris/HCl pH 7.5, 0.1 mM EGTA, 1 mg/ml BSA, 0.1% β-mercaptoethanol buffer and assayed in an incubation containing 50 mM Tris/HCl pH7.5, 0.1 mM EGTA, 0.1% β-mercaptoethanol, CAMK-1 (5-20 mU) diluted in 50 mM Tris/HCl pH 7.5, 0.1 mM EGTA, 1 mg/ml BSA, 0.1% β-mercaptoethanol is assayed against substrate peptide […] in an incubation containing 50 mM Tris/HCl pH 7.5, 0.1 mM EGTA, 0.5 mM CaCl2, 0.3 μM calmodulin, 0.1% β-mereaptoethanol, 300 μM substrate peptide, 10 mM magnesium acetate and 0.05 mM [^33P-γ-ATP] (500-1000 cpm/pmole). EF2K (5-20 mU) diluted in 50 mM Hepes pH 6.6, 0.1% β-mercaptoethanol, 1 mg/ml BSA is assayed against a substrate peptide […] in an incubation containing 50 mM Hepes pH 6.6, 0.2 mM CaCl2, 0.3 μM Calmodulin, 0.05% b-mercaptoethanol, 300 μM substrate peptide, 10 mM magnesium acetate and 0.05 mM [^33P-γ-ATP] (500-1000 cpm/pmole).
ΔPH-PKBbeta-S474D (5-20 mU diluted in 50 mM Tris pH 7.5, 0.1 mM EGTA, 0.1% β-mercaptoethanol, 1 mg/ml BSA) is assayed against a modified Crosstide peptide ([…]) in a final volume of 25.5 μl containing 50 mM Tris pH 7.5, 0.05% β-mercaptoethanol, 30 μM substrate peptide, 10 mM magnesium acetate and 0.05 mM [^33P- γATP] (50-1000 cpm/pmole) and incubated for 30 min at room temperature.

The next assay has as its target MNK2 (Homo sapiens, UniProt Q9HBH9). In words: biochemical. The following applies: read-out: MNK2 activity as percentage of control without inhibitor. As to the method:
as §1, §2

In another assay the target is T1, ERK8 (Homo sapiens, UniProt Q8TD08).
T1 sequence (Q8TD08 1-544): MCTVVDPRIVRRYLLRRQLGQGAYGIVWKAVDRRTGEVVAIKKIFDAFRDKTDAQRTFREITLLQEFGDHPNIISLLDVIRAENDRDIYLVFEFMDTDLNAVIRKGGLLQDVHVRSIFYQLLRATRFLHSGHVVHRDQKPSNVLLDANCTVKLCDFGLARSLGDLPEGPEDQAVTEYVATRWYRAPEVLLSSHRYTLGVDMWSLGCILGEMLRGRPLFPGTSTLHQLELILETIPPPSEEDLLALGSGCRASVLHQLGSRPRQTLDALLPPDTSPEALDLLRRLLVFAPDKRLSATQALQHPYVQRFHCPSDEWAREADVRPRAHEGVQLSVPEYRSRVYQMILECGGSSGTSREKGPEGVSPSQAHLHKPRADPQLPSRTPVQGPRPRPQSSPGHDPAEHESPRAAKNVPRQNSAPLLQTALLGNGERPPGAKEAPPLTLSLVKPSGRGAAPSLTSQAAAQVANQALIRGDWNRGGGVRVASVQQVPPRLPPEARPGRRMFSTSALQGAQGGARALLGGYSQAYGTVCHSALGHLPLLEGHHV
In words: biochemical. The note with it: read-out: ERK8 activity as percentage of control without inhibitor. As for the experimental part:
as §1, §2

Where two headings read alike, the source gives them in different places.

MNK2, sequence (Q9HBH9 whole entry, species assumed): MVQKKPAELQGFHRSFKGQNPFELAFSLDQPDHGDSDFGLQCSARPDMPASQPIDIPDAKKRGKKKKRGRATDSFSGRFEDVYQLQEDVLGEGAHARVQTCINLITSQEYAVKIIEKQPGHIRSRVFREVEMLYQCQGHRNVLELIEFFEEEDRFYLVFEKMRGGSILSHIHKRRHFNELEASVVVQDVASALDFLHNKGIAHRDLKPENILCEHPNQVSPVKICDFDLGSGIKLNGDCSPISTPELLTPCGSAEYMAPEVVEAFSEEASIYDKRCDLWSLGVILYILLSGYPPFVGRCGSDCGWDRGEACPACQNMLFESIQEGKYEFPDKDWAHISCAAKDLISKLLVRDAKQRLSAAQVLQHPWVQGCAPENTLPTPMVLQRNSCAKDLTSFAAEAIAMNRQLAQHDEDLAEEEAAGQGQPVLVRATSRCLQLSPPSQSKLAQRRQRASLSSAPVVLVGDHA
PKBb, sequence (P31751 120-481 S474D limits assumed): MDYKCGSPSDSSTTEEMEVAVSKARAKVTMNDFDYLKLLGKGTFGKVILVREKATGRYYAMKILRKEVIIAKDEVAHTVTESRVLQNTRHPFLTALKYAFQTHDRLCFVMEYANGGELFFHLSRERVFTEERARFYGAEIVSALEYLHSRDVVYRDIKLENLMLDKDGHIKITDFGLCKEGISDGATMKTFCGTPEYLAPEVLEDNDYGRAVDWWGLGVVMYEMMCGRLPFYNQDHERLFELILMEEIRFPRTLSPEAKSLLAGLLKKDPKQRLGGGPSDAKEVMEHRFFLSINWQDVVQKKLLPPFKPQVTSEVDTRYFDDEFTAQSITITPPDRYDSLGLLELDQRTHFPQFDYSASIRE

Take `COc1ccc2c3c([nH]c2c1)C(C)=NCC3` [Harmaline]: the “PHK activity as percentage of control without inhibitor” value worked out at 73% in the assay with PHK (inhibitor 1 μM) and 88% in the assay with PHK (inhibitor 10 μM). Besides, the remaining activity at 1 µM at PKBb (inhibitor 1 μM) is 97%; at MNK2 (inhibitor 1 μM) it was 88%; at ERK8 (inhibitor 1 μM), 58%. Besides, the remaining activity at 10 µM at PKBb (inhibitor 10 μM) worked out at 96%; at MNK2 (inhibitor 10 μM), 77%; on ERK8 (inhibitor 10 μM) it was 21%.

`CC1=NCCc2c1[nH]c1cc(O)ccc21` [Harmalol]: the “PHK activity as percentage of control without inhibitor” value in the assay with PHK (inhibitor 1 μM) is reported as 101%; with PHK (inhibitor 10 μM) it was 63%. Besides, the remaining activity at 1 µM on PKBb (inhibitor 1 μM) stood at 103%; at MNK2 (inhibitor 1 μM), 97%; at ERK8 (inhibitor 1 μM) it was 41%. Moreover, the remaining activity at 10 µM stood at 77% at PKBb (inhibitor 10 μM), 71% on MNK2 (inhibitor 10 μM) and 21% at ERK8 (inhibitor 10 μM).

In the case of `COc1ccc2c(c1)[nH]c1c(C)nccc12` [Harmine], the entries for the “PHK activity as percentage of control without inhibitor” value with PHK (inhibitor 1 μM) and in the assay with PHK (inhibitor 10 μM) were 103% and 82%, respectively. In addition, the remaining activity at 1 µM on PKBb turned out to be 94%; on MNK2 it was 84%; on ERK8, 25%. Also, the values for the remaining activity at 10 µM at PKBb, at MNK2 and on ERK8 were 101%, 98% and 19%, respectively.
